# Data as given in ChEMBL document CHEMBL6092216, “Development of α-Helical Antimicrobial Peptides with Imperfect Amphipathicity for Superior Activity and Selectivity” (J Med Chem, 2024).
# Active and inactive are the calls of the source. The calls are words filed in the database; no cut-off is given here.
# Key:
# [1] = system: Pseudomonas aeruginosa; assay: Bactericidal activity against Pseudomonas aeruginosa ATCC 27853 assessed as elimination of bacterial cells at 5XMIC measured within 1 hr by killing kinetic assay; type: functional
# [2] = system: Staphylococcus aureus; assay: Bactericidal activity against Staphylococcus aureus ATCC 6538 assessed as elimination of bacterial cells at 5X to 10X MIC measured within 3 hrs by killing kinetic assay; type: functional
# [3] = system: Staphylococcus aureus; assay: Antibacterial activity against Staphylococcus aureus 11842 assessed as inhibition of bacterial growth incubated for 24 hrs by tube microdilution assay; type: functional
# [4] = system: Staphylococcus aureus; assay: Antibacterial activity against methicillin-resistant Staphylococcus aureus 51 assessed as inhibition of bacterial growth incubated for 24 hrs by tube microdilution assay; type: functional
# [5] = system: Staphylococcus aureus; assay: Antibacterial activity against Staphylococcus aureus ATCC 6538 infected in BALB/c mouse assessed as inhibition of bacterial colonization on wounded skin at 0.5 mg/ml applied on skin and measured after 2 hrs relative to control; type: functional
# [6] = system: Staphylococcus aureus; assay: Antibacterial activity against Staphylococcus aureus 220823 assessed as inhibition of bacterial growth incubated for 24 hrs by tube microdilution assay; type: functional
# [7] = system: Staphylococcus aureus; assay: Antibacterial activity against methicillin-resistant Staphylococcus aureus 42 assessed as inhibition of bacterial growth incubated for 24 hrs by tube microdilution assay; type: functional
# [8] = system: Cell membrane; assay: Induction of membrane permeabilization in Staphylococcus aureus ATCC 6538 assessed as increase in fluorescence intensity at 1X to 10XMIC measured for 90 mins by propidium iodide staining based fluorescence analysis; type: subcellular
# [9] = system: Pseudomonas aeruginosa; assay: Ratio of MIC for antibacterial activity against Pseudomonas aeruginosa ATCC 27853 measured following incubation of drug with mouse plasma for 8 hrs to MIC for antibacterial activity against Pseudomonas aeruginosa ATCC 27853; type: functional
# [10] = system: Cell membrane; assay: Induction of membrane permeabilization in Acinetobacter baumannii 0357 assessed as increase in fluorescence intensity at 1X to 10XMIC measured for 90 mins by propidium iodide staining based fluorescence analysis; type: subcellular
# [11] = system: Pseudomonas aeruginosa; assay: Bactericidal activity against Pseudomonas aeruginosa ATCC 27853 assessed as elimination of bacterial cells at 5X to 10XMIC measured within 3 hrs by killing kinetic assay; type: functional
# [12] = Toxicity against C57BL/6J mouse assessed as behavioural changes at 10 to 20 mg/kg, iv measured for 48 hrs post-injection; type: organism-based; settings: in vivo, dose 10-20 mg/kg
# [13] = system: Erythrocyte; assay: Induction of hemolysis in mouse red blood cells at 1.56 to 100 ug/ml incubated for 1 hr; type: toxicity, cell-based; settings: dose 1.56-100 µg/ml
# [14] = system: Pseudomonas aeruginosa; assay: Induction of bacterial cell rupture in Pseudomonas aeruginosa ATCC 27853 assessed as bacterial membrane damage with visible surface irregularities and protrusions at 5XMIC measured after 30 mins scanning electron microscopy; type: functional, organism-based
# [15] = system: Pseudomonas aeruginosa; assay: Antibacterial activity against Pseudomonas aeruginosa 17068 assessed as inhibition of bacterial growth incubated for 24 hrs by tube microdilution assay; type: functional
# [16] = system: Pseudomonas aeruginosa; assay: Induction of bacterial cell rupture in Pseudomonas aeruginosa ATCC 27853 assessed as induction of internal perturbations and breaks along the membrane at 5XMIC measured after 30 mins transmission electron microscopy; type: functional, organism-based
# [17] = system: Cell membrane; assay: Induction of membrane permeabilization in Pseudomonas aeruginosa 17068 assessed as increase in fluorescence intensity at 1X to 10XMIC measured for 90 mins by propidium iodide staining based fluorescence analysis; type: subcellular
# [18] = system: Staphylococcus aureus; assay: Antibacterial activity against Staphylococcus aureus 08310 assessed as inhibition of bacterial growth incubated for 24 hrs by tube microdilution assay; type: functional
# [19] = system: Staphylococcus aureus; assay: Antibacterial activity against Staphylococcus aureus ATCC 6538 infected in BALB/c mouse assessed as inhibition of bacterial colonization on wounded skin at 2 mg/ml applied on skin and measured after 2 hrs relative to control; type: functional
# [20] = system: Staphylococcus aureus; assay: Antipersister-activity against Staphylococcus aureus ATCC 6538 assessed as elimination of persister cells preincubated adherent persistent cells with vancomycin for 24 hrs followed by incubation with drug for 12 hrs; type: functional, organism-based
# [21] = system: Acinetobacter baumannii; assay: Antibacterial activity against Acinetobacter baumannii 19110 assessed as inhibition of bacterial growth incubated for 24 hrs by tube microdilution assay; type: functional
# [22] = system: Acinetobacter baumannii; assay: Antibacterial activity against Acinetobacter baumannii 0357 assessed as inhibition of bacterial growth incubated for 24 hrs by tube microdilution assay; type: functional
# [23] = system: Staphylococcus aureus; assay: Antibacterial activity against methicillin-resistant Staphylococcus aureus 52 assessed as inhibition of bacterial growth incubated for 24 hrs by tube microdilution assay; type: functional
# [24] = system: Escherichia coli; assay: Antibacterial activity against Escherichia coli 5017 assessed as inhibition of bacterial growth incubated for 24 hrs by tube microdilution assay; type: functional
# [25] = system: Staphylococcus aureus; assay: Antibacterial activity against Staphylococcus aureus ATCC 6538 assessed as inhibition of bacterial growth by tube microdilution assay; type: functional
# [26] = system: Staphylococcus aureus; assay: Antibacterial activity against methicillin-resistant Staphylococcus aureus 12 assessed as inhibition of bacterial growth incubated for 24 hrs by tube microdilution assay; type: functional
# [27] = system: Staphylococcus aureus; assay: Antibacterial activity against Staphylococcus aureus 157752 assessed as inhibition of bacterial growth incubated for 24 hrs by tube microdilution assay; type: functional
# [28] = system: Staphylococcus aureus; assay: Antibacterial activity against Staphylococcus aureus 15192 assessed as inhibition of bacterial growth incubated for 24 hrs by tube microdilution assay; type: functional
# [29] = system: Acinetobacter baumannii; assay: Antibacterial activity against Acinetobacter baumannii ATCC 19606 infected in BALB/c mouse assessed as inhibition of bacterial colonization on wounded skin at 0.1 to 2 mg/ml applied on skin and measured after 2 hrs; type: functional, organism-based; settings: dose 0.1-2 mg/ml
# [30] = system: Staphylococcus aureus; assay: Antibiofilm activity against Staphylococcus aureus ATCC 6538 assessed as inhibition of biofilm formation at 1X to 10XMIC incubated for 24 hrs by crystal violet staining based analysis; type: functional, organism-based
# [31] = system: Staphylococcus aureus; assay: Bactericidal activity against Staphylococcus aureus ATCC 6538 assessed as bacterial cell killing measured after 35 passages; type: functional, organism-based
# [32] = system: HaCaT; assay: Cytotoxicity against human HaCaT cells assessed as effect on cell viability at 3.13 to 400 ug/ml incubated for 24 hrs by CCK-8 assay; type: toxicity, cell-based; settings: dose 3.13-400 µg/ml
# [33] = system: Pseudomonas aeruginosa; assay: Antibacterial activity against Pseudomonas aeruginosa 90068 assessed as inhibition of bacterial growth incubated for 24 hrs by tube microdilution assay; type: functional
# [34] = system: HEK-293T; assay: Cytotoxicity against HEK293T cells assessed as effect on cell viability at 3.13 to 400 ug/ml incubated for 24 hrs by CCK-8 assay; type: toxicity, cell-based; settings: human, dose 3.13-400 µg/ml
# [35] = system: Pseudomonas aeruginosa; assay: Antibacterial activity against Pseudomonas aeruginosa 52097 assessed as inhibition of bacterial growth incubated for 24 hrs by tube microdilution assay; type: functional
# [36] = system: Acinetobacter baumannii; assay: Antibacterial activity against Acinetobacter baumannii 10769 assessed as inhibition of bacterial growth incubated for 24 hrs by tube microdilution assay; type: functional
# [37] = system: Staphylococcus aureus; assay: Bactericidal activity against Staphylococcus aureus ATCC 6538 assessed as elimination of bacterial cells at 5XMIC measured within 1 hr by killing kinetic assay; type: functional
# [38] = system: Pseudomonas aeruginosa; assay: Antibacterial activity against Pseudomonas aeruginosa 60357 assessed as inhibition of bacterial growth incubated for 24 hrs by tube microdilution assay; type: functional
# [39] = system: Staphylococcus aureus; assay: Antibiofilm activity against preformed Staphylococcus aureus ATCC 6538 biofilms assessed as biofilm eradication at 1X to 10XMIC incubated for 24 hrs by crystal violet staining based analysis; type: functional, organism-based
# [40] = system: Staphylococcus aureus; assay: Antibacterial activity against Staphylococcus aureus 15772 assessed as inhibition of bacterial growth incubated for 24 hrs by tube microdilution assay; type: functional
substance,measurement,setting,value
H-RRGIKKFIKKVKKVKKAI-OH,Activity,[1],96.6%
same,Activity,[2],100%
same,MIC,[3],2.34 µg/mL
same,MIC,[4],2.34 µg/mL
same,inhibition in vivo at 500 µg/mL,[5],71.8%
same,MIC,[6],2.34 µg/mL
same,MIC,[7],2.34 µg/mL
same,Activity,[8],Dose-dependent-effect
same,Ratio,[9],4
same,Activity,[10],Dose-dependent-effect
same,Activity,[11],100%
same,Activity,[12],Non-toxic
same,Activity,[13],Non-toxic
same,Activity,[14],Active
same,MIC,[15],1.17 µg/mL
same,Activity,[16],Active
same,Activity,[17],Dose-dependent-effect
same,MIC,[18],2.34 µg/mL
same,inhibition in vivo at 2000 µg/mL,[19],82.4%
same,Activity,[20],Dose-dependent-effect
same,MIC,[21],2.34 µg/mL
same,MIC,[22],2.34 µg/mL
same,MIC,[23],2.34 µg/mL
same,MIC,[24],9.37 µg/mL
same,MIC,[25],2.34 µg/mL
same,MIC,[26],2.34 µg/mL
same,MIC,[27],2.34 µg/mL
same,MIC,[28],2.34 µg/mL
same,Activity,[29],"Dose-dependent-effect; Less Efficacy Compared To Colistin, Reflected By Reduced Efficacy After Plasma Treatment"
same,Activity,[30],Dose-dependent-effect
same,Activity,[31],Active
same,Activity,[32],Non-toxic
same,MIC,[33],1.17 µg/mL
same,Activity,[34],Non-toxic
same,MIC,[35],1.17 µg/mL
same,MIC,[36],2.34 µg/mL
same,Activity,[37],99.7%
same,MIC,[38],1.17 µg/mL
same,Activity,[39],Active
same,MIC,[40],2.34 µg/mL
